Measurements as given in the supplement of paper PMC10307832.

Tests used:
Assay in all cases: relative viability (nuclei count vs DMSO), 5 days (fraction); higher = more cells survive
[1] = compound: OCc1c[nH]c2ccccc12 [Indole-3-carbinol] + O=C(c1cc(Cc2n[nH]c(=O)c3ccccc23)ccc1F)N1CCN(C(=O)C2CC2)CC1 [Olaparib] (partner 8 µM)
In short: (§1)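 Lung cancer cell lines were pin-tool dosed in 1536-well plates on the day after seeding, with either a lone drug or a fixed anchor-drug dose plus five library-drug doses (not always all listed) in √10 steps. Nuclei were counted on 4× images after 5 days. Relative viability is the ratio of treated-well to vehicle-well nuclei counts, with each value a median of duplicate plates.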

[2] = compound: OCc1c[nH]c2ccccc12 [Indole-3-carbinol] + C[C@@H](Oc1cc(-c2cnn(C3CCNCC3)c2)cnc1N)c1c(Cl)ccc(F)c1Cl [Crizotinib] (partner 1 µM)
In short: as §1

[3] = compound: OCc1c[nH]c2ccccc12 [Indole-3-carbinol] + Nc1nc2[nH]cc(CCc3ccc(C(=O)N[C@@H](CCC(=O)O)C(=O)O)cc3)c2c(=O)[nH]1 [Pemetrexed] (partner 0.2 µM)
In short: as §1

[4] = compound: OCc1c[nH]c2ccccc12 [Indole-3-carbinol] + CC(=O)Nc1cccc(-n2c(=O)n(C3CC3)c(=O)c3c(Nc4ccc(I)cc4F)n(C)c(=O)c(C)c32)c1 [Trametinib] (partner 0.02 µM)
In short: as §1

[5] = compound: OCc1c[nH]c2ccccc12 [Indole-3-carbinol] + C[C@]1(O)C[C@@H](c2nc(-c3ccc4ccc(-c5ccccc5)nc4c3)c3c(N)nccn32)C1 [Linsitinib] (partner 1 µM)
In short: as §1

Row | Cell Line | relative viability ([1]; first compound 0.253 µM) | relative viability ([1]; first compound 0.8 µM) | relative viability ([1]; first compound 2.53 µM) | relative viability ([1]; first compound 8 µM) | relative viability ([2]; first compound 0.253 µM) | relative viability ([2]; first compound 0.8 µM) | relative viability ([2]; first compound 2.53 µM) | relative viability ([2]; first compound 8 µM) | relative viability ([3]; first compound 0.253 µM) | relative viability ([3]; first compound 0.8 µM) | relative viability ([3]; first compound 2.53 µM) | relative viability ([3]; first compound 8 µM) | relative viability ([4]; first compound 0.253 µM) | relative viability ([4]; first compound 0.8 µM) | relative viability ([4]; first compound 2.53 µM) | relative viability ([4]; first compound 8 µM) | relative viability ([5]; first compound 0.253 µM) | relative viability ([5]; first compound 0.8 µM) | relative viability ([5]; first compound 2.53 µM) | relative viability ([5]; first compound 8 µM)
1 | NCI-H23 | 0.316 | 0.353 | 0.3 | 0.276 | 0.679 | 0.497 | 0.55 | 0.509 | 0.738 | 0.773 | 0.844 | 0.788 | 0.315 | 0.319 | 0.43 | 0.414 | 0.668 | 0.649 | 0.722 | 0.485
2 | NCI-H322M | 0.779 | 0.692 | 0.773 | 0.725 | 1.09 | 0.989 | 1 | 0.892 | 0.562 | 0.685 | 0.546 | 0.636 | 0.517 | 0.411 | 0.496 | 0.451 | 0.9 | 0.899 | 0.974 | 0.839
3 | NCI-H358 | 0.619 | 0.659 | 0.717 | 0.569 | 0.64 | 0.698 | 0.735 | 0.461 | 0.17 | 0.161 | 0.182 | 0.185 | 0.119 | 0.122 | 0.139 | 0.121 | 0.697 | 0.7 | 0.734 | 0.709
4 | NCI-H441 | 0.61 | 0.685 | 0.572 | 0.496 | 0.724 | 0.609 | 0.824 | 0.76 | 0.235 | 0.283 | 0.254 | 0.245 | 0.59 | 0.547 | 0.469 | 0.475 | 0.582 | 0.688 | 0.576 | 0.441
5 | NCI-H460 | 0.38 | 0.377 | 0.455 | 0.375 | 1.03 | 0.895 | 0.925 | 0.851 | 0.0608 | 0.0603 | 0.063 | 0.0679 | 0.119 | 0.151 | 0.11 | 0.129 | 0.773 | 0.875 | 0.713 | 0.689
6 | NCI-H520 | 0.336 | 0.341 | 0.383 | 0.265 | 0.826 | 0.948 | 1.02 | 0.754 | 0.671 | 0.687 | 0.69 | 0.757 | 0.702 | 0.575 | 0.741 | 0.772 | 1.04 | 0.872 | 1.24 | 0.854
7 | NCI-H596 | 0.602 | 0.738 | 0.451 | 0.653 | 0.876 | 1.13 | 0.989 | 1 | 0.474 | 0.508 | 0.517 | 0.486 | 0.779 | 0.829 | 0.809 | 0.762 | 1.02 | 1.08 | 1.07 | 0.954
8 | NCI-H647 | 0.578 | 0.735 | 0.693 | 0.409 | 1.23 | 1.13 | 1.04 | 1.01 | 0.18 | 0.202 | 0.159 | 0.181 | 0.562 | 0.405 | 0.508 | 0.524 | 1.08 | 1.44 | 1.13 | 1.04
9 | NCI-H650 | 0.395 | 0.403 | 0.418 | 0.359 | 0.716 | 0.729 | 0.8 | 0.638 | 0.959 | 0.851 | 0.937 | 1.04 | 1.13 | 0.958 | 1.04 | 0.956 | 0.948 | 0.773 | 0.909 | 0.712
10 | NCI-H661 | 0.775 | 0.771 | 0.866 | 0.742 | 1.05 | – | 1.16 | 0.977 | 0.898 | 0.891 | 0.945 | 0.891 | 0.526 | 0.564 | 0.606 | 0.58 | 0.542 | 0.378 | 0.623 | 0.676
11 | NCI-H838 | 0.856 | 0.85 | 0.75 | 0.704 | 0.972 | 0.717 | 0.97 | 0.828 | 0.236 | 0.256 | 0.265 | 0.254 | 0.593 | 0.499 | 0.525 | 0.495 | 1.09 | 0.975 | 1.02 | 0.951
12 | NCI-H1355 | 0.782 | 0.77 | 0.772 | 0.699 | 1.17 | 1.08 | 0.971 | 1.06 | 1.08 | 1.08 | 0.983 | 1.06 | 0.43 | 0.343 | 0.386 | 0.415 | 0.774 | 0.802 | 0.764 | 0.715
13 | NCI-H1437 | 0.65 | 0.675 | 0.639 | 0.619 | 0.959 | 1.03 | 0.943 | 0.9 | 0.311 | 0.337 | 0.312 | 0.318 | 0.549 | 0.558 | 0.459 | 0.458 | 0.986 | 1.16 | 1.04 | 0.894
14 | NCI-H1651 | 0.195 | 0.203 | 0.161 | 0.175 | 0.766 | 0.841 | 0.917 | 0.886 | 0.576 | 0.539 | 0.686 | 0.605 | 0.819 | 0.787 | 0.823 | 0.822 | 0.873 | 1.11 | 1.06 | 0.895
15 | NCI-H1666 | 0.803 | 0.731 | 0.766 | 0.728 | 1.11 | 0.994 | 1.42 | 0.892 | 0.882 | 0.852 | 0.878 | 0.826 | 0.828 | 0.85 | 0.939 | 0.788 | 0.81 | 0.867 | 0.84 | 0.808
16 | NCI-H1734 | 0.61 | 0.619 | 0.613 | 0.58 | 0.72 | 0.777 | 0.637 | 0.632 | 0.413 | 0.417 | 0.454 | 0.418 | 0.676 | 0.762 | 0.617 | 0.651 | 0.947 | 0.872 | 0.835 | 0.813
